Source: patent publication US7179823B1, “5-membered n-heterocyclic compounds with hypoglycemic and hypolipidemic activity” (Takeda Pharmaceutical Company Limited, priority 1999, dated 2007)
Like-named read-outs stand apart in the source and are kept apart here.

Experiments:
KKA^y mice [1] = assay: Hypoglycemic and hypolipidemic actions in mice; type: in vivo; settings: four days; for inhibition in vivo at 0.001 % / inhibition in vivo at 0.005 % / inhibition in vivo at 0.01 %: Mus musculus, po, 96 h; for inhibition in vivo at 0.005 %: 0.005% in powdery diet; for inhibition in vivo at 0.01 %: 0.01% in powdery diet
Text: Hypoglycemic and Hypolipidemic Actions in Mice
Test compounds were mixed in a powdery diet (CE-2, Japan Clea) at the concentration of 0.01% (compounds of Examples 12, 30, 89, 186), 0.005% (compounds of Examples 7, 80, 82, 181, 182, 184, 256, 262, 283), 0.001% (compounds of Examples 9, 104, 110, 155, 156, 160, 167, 169, 172, 174, 176, 189), or 0.0003% (compounds of Examples 38, 40, 44), and freely given to KKA^y mice (9 to 12 weeks old, 5 mice in a group), a model of obese and type 2 diabetes mellitus, for four days. During this period, water was given freely. Blood was sampled from orbital venous plexus, and glucose and triglyceride levels in plasma separated from blood were determined enzymatically using L type Wako Glu2 (Wako Pure Chemical Industries, Ltd.) or L type Wako TG•H (Wako Pure Chemical Industries, Ltd.), respectively.
In the Table, the value of each treatment group is represented as percent reduction compared with the non-treatment group.

KKA^y mice [2] = assay: Total cholesterol lowering action and plasma anti-arteriosclerosis index-enhancing action in mice; type: in vivo; settings: four days, non-treatment group taken as 100%; for change in vivo at 0.005 % / inhibition in vivo at 0.005 % / change in vivo at 0.001 % / inhibition in vivo at 0.001 %: Mus musculus, po, 96 h; for change in vivo at 0.005 % / inhibition in vivo at 0.005 %: 0.005% in powdery diet; for change in vivo at 0.005 % / change in vivo at 0.001 %: read-out: Plasma anti-arteriosclerosis index-enchancing action (%)
Text: Total Cholesterol Lowering Action and Plasma Anti-Arteriosclerosis Index-Enhancing Action in Mice
Test compounds were mixed in a powdery diet (CE-2, Japan Clea) at the concentration of 0.01% (compounds of Examples 12, 30, 89), 0.005% (compounds of Examples 38, 40, 44, 181, 184, 262, 283), or 0.001% (compounds of Examples 9, 156, 167, 172, 174, 176, 189), and freely given to KKA^y mice (9 to 12 weeks old, 5 mice per group), a model of obese and type 2 diabetes mellitus, for four days. During this period, water was given freely. Blood was sampled from orbital venous plexus and plasma was separated. Total cholesterol levels were determined by using L type Wako Cholesterol (Wako Pure Chemical Industries, Ltd.). Precipitation reagent for apoB containing lipoprotein was added to a part of the plasma to precipitate non-HDL lipoprotein, and cholesterol (HDL cholesterol) in the resulting supernatant was determined. The plasma anti-arteriosclerosis index [(HDL cholesterol/total cholesterol)×100] was calculated by using these cholesterol levels.
In the Table, “Total cholesterol lowering action (%)” represents the percent reduction (%) of total cholesterol level in the treatment group, when the total cholesterol level in the non-treatment group is taken as 100%. “Plasma anti-arteriosclerosis index-enhancing action (%)” represents the percent increase (%) of plasma anti-arteriosclerosis index in the treatment group, when the plasma anti-arteriosclerosis index in the non-treatment group is taken as 100%.

[3] = 0.001% in powdery diet, percent reduction of plasma glucose compared with the non-treatment group, read-out: Hypoglycemic action (%)
[4] = 0.001% in powdery diet, percent reduction of plasma triglyceride compared with the non-treatment group, read-out: Hypolipidemic action (%)
[5] = percent reduction of plasma glucose compared with the non-treatment group, read-out: Hypoglycemic action (%)
[6] = percent reduction of plasma triglyceride compared with the non-treatment group, read-out: Hypolipidemic action (%)
[7] = percent increase of [(HDL cholesterol/total cholesterol)×100]
[8] = percent reduction of plasma total cholesterol
[9] = 0.001% in powdery diet, percent increase of [(HDL cholesterol/total cholesterol)×100]
[10] = 0.001% in powdery diet, percent reduction of plasma total cholesterol

| SMILES | inhibition in vivo at 0.001 % (KKA^y mice [1]; [3]) [%] | inhibition in vivo at 0.001 % (KKA^y mice [1]; [4]) [%] | change in vivo at 0.001 % (KKA^y mice [2]; [9]) [%] | inhibition in vivo at 0.001 % (KKA^y mice [2]; [10]) [%] | also measured |
| --- | --- | --- | --- | --- | --- |
| Cc1oc(-c2ccccc2)nc1COc1ccc(Cn2cc(CCC(=O)O)c(OCc3ccccc3)n2)cc1 [Example 160, 3-[3-benzyloxy-1-[4-(5-methyl-2-phenyl-4-oxazolylmethoxy)benzyl]-1H-pyrazol-4-yl]propionic acid] | 54 | 57 | – | – | melting point: 108 to 109 °C |
| CCOc1nn(Cc2ccc(OCc3nc(-c4ccccc4)sc3C)cc2)cc1CCC(=O)O [Example 182, 3-[3-ethoxy-1-[4-(5-methyl-2-phenyl-4-thiazolylmethoxy)benzyl]-1H-pyrazol-4-yl]propionic acid] | – | – | – | – | inhibition in vivo at 0.005 % (KKA^y mice [1]; [5]): 34%; inhibition in vivo at 0.005 % (KKA^y mice [1]; [6]): 12% |
| CCOc1nn(Cc2ccc(OCc3csc(-c4ccccc4)n3)cc2)cc1CCC(=O)O [Example 181, 3-[3-ethoxy-1-[4-(2-phenyl-4-thiazolylmethoxy)benzyl]-1H-pyrazol-4-yl]propionic acid] | – | – | – | – | change in vivo at 0.005 % (KKA^y mice [2]; [7]): 21%; inhibition in vivo at 0.005 % (KKA^y mice [2]; [8]): 25%; inhibition in vivo at 0.005 % (KKA^y mice [1]; [5]): 56%; inhibition in vivo at 0.005 % (KKA^y mice [1]; [6]): 63% |
| CCOc1nn(Cc2ccc(OCc3nc(-c4ccco4)oc3C)c(OC)c2)cc1CCC(=O)O [Example 174, 3-[3-ethoxy-1-[4-[2-(2-furyl)-5-methyl-4-oxazolylmethoxy]-3-methoxybenzyl]-1H-pyrazol-4-yl]propionic acid] | 40 | 52 | 10 | 19 | – |
| CCOc1nn(Cc2ccc(OCc3nc(-c4ccccc4)oc3C)nc2)cc1CCC(=O)O [Example 184, 3-[3-ethoxy-1-[2-(5-methyl-2-phenyl-4-oxazolylmethoxy)-5-pyridylmethyl]-1H-pyrazol-4-yl]propionic acid] | – | – | – | – | change in vivo at 0.005 % (KKA^y mice [2]; [7]): 17%; inhibition in vivo at 0.005 % (KKA^y mice [2]; [8]): 27%; inhibition in vivo at 0.005 % (KKA^y mice [1]; [5]): 56%; inhibition in vivo at 0.005 % (KKA^y mice [1]; [6]): 82% |
| CCOc1nn(Cc2ccc(OCc3nc(-c4cccs4)oc3C)cc2)cc1CCC(=O)O [Example 189, 3-[3-ethoxy-1-[4-[5-methyl-2-(2-thienyl)-4-oxazolylmethoxy]benzyl]-1H-pyrazol-4-yl]propionic acid] | 44 | 75 | 20 | 21 | – |
| CCOc1nn(Cc2ccc(OCc3nc(-c4ccccc4)oc3C)c(OC)c2)cc1CCC(=O)O [Example 172, 3-[3-ethoxy-1-[3-methoxy-4-(5-methyl-2-phenyl-4-oxazolylmethoxy)benzyl]-1H-pyrazol-4-yl]propionic acid] | 42 | 62 | 11 | 20 | – |
| CCOc1nn(Cc2ccc(OCc3nc(-c4cccs4)oc3C)c(OC)c2)cc1CCC(=O)O [Example 176] | – | – | – | – | Plasma anti-arteriosclerosis index-enchancing action (%) (KKA^y mice [2]; [9]): 11%; Total cholesterol lowering action (%) (KKA^y mice [2]; [10]): 23%; Hypoglycemic action (%) (KKA^y mice [1]; 0.001% in powdery diet, percent reduction of plasma glucose compared with the non-treatment group): 40%; Hypolipidemic action (%) (KKA^y mice [1]; 0.001% in powdery diet, percent reduction of plasma triglyceride compared with the non-treatment group): 66% |
| CCOc1nn(Cc2ccc(OCc3nc(-c4ccco4)oc3C)cc2)cc1CCC(=O)O [Example 167, 3-[3-ethoxy-1-[4-[2-(2-furyl)-5-methyl-4-oxazolylmethoxy]benzyl]-1H-pyrazol-4-yl]propionic acid] | 48 | 60 | 9 | 19 | – |
| CCOc1nn(Cc2ccc(OCc3coc(-c4ccccc4)n3)cc2)cc1CCC(=O)O [Example 186, 3-[3-ethoxy-1-[4-(2-phenyl-4-oxazolylmethoxy)benzyl]-1H-pyrazol-4-yl]propionic acid] | – | – | – | – | inhibition in vivo at 0.01 % (KKA^y mice [1]; [5]): 57%; inhibition in vivo at 0.01 % (KKA^y mice [1]; [6]): 78% |
| CCOc1nn(Cc2ccc(OCc3nc(-c4ccccc4)oc3C)cc2)cc1CCC(=O)O [Example 155, 3-[3-ethoxy-1-[4-(5-methyl-2-phenyl-4-oxazolylmethoxy)benzyl]-1H-pyrazol-4-yl]propionic acid] | 49 | 56 | – | – | – |
| Cc1oc(-c2ccco2)nc1COc1ccc(Cn2cc(CCC(=O)O)c(OCc3ccccc3)n2)cc1 [Example 169, 3-[3-benzyloxy-1-[4-[2-(2-furyl)-5-methyl-4-oxazolylmethoxy]benzyl]-1H-pyrazol-4-yl]propionic acid] | 48 | 39 | – | – | – |
| CCCOc1nn(Cc2ccc(OCc3nc(-c4ccccc4)oc3C)cc2)cc1CCC(=O)O [Example 156, 3-[1-[4-(5-methyl-2-phenyl-4-oxazolylmethoxy)benzyl]-3-propyloxy-1H-pyrazol-4-yl]propionic acid] | 45 | 80 | 15 | 20 | – |
